Laboratory results: article PMC5898707, “Piperazinyl fragment improves anticancer activity of Triapine” (PLoS ONE, 2018)

Key:
[1] = test system: NHDF; test: Cytotoxicity MTS assay, 72 h; type: cell-based; settings: Homo sapiens, NHDF normal fibroblasts
Excerpt: (§1) The human colon carcinoma cell line HCT116 wild type (p53^+/+), human breast carcinoma cell line MCF-7 and glioblastoma cell line Hs683 were obtained from ATCC. The glioma cell line U-251 was purchased from Sigma Aldrich and the normal human fibroblast cell lines NHDF from PromoCell. The human colon cancer cell line HCT116 with a p53 deletion (p53^-/-) was kindly provided by Prof. M. Rusin from the Maria Sklodowska-Curie Memorial Cancer Centre and Institute of Oncology in Gliwice, Poland. Cells were grown as monolayer cultures in Dulbecco’s modified Eagle’s medium with an antibiotic gentamicin (200 μL/100 mL medium) in 75 cm^2 flasks (Nunc). DMEM for HCT116, MCF-7, U-251, Hs683 were supplemented with 12% heat-inactivated fetal bovine serum (Sigma) and for NHDF with 15% non-inactivated fetal bovine serum (Sigma). All the cell lines were cultured under standard conditions at 37°C in a humidified atmosphere at 5% CO2.
(§2) The cells were seeded in 96-well plates (Nunc) at a density of 5,000 cells/well (HCT116, MCF-7, U-251, Hs683) and 4,000 cells/well (NHDF) and incubated at 37°C for 24 h. The assay was performed following a 72 h incubation with varying concentrations of the compounds that were tested. Then, 20 μL of The CellTiter 96®AQueous One Solution-MTS (Promega) solution was added to each well (with 100 μL DMEM without phenol red) and incubated for 1 h at 37°C. The optical densities of the samples were analyzed at 490 nm using a multi-plate reader (Synergy 4, Bio Tek). Results were expressed as a percentage of the control and calculated as the inhibitory concentration (IC50) values using GraphPad Prism 5. The IC50 parameter was defined as the compound concentration that was necessary to reduce the proliferation of cells to 50% of the untreated control. Each individual compound was tested in triplicate in a single experiment with each experiment being repeated four to five times.

[2] = test system: Hs683; test: Cytotoxicity MTS assay, 72 h; type: cell-based, human; settings: Homo sapiens, Hs 683; Hs683; 72 h; MTS
Excerpt: as §1, §2

[3] = test system: MCF-7; test: Cytotoxicity MTS assay, 72 h; type: cell-based, human; settings: Homo sapiens, MCF7; MCF-7; 72 h; MTS
Excerpt: as §1, §2

[4] = test system: HCT116 p53^-/-; test: Cytotoxicity MTS assay, 72 h; type: cell-based, human; settings: Homo sapiens, HCT-116; HCT116 p53^-/-; 72 h; MTS
Excerpt: as §1, §2

[5] = test system: U-251; test: Cytotoxicity MTS assay, 72 h; type: cell-based, human; settings: Homo sapiens; U-251; 72 h; MTS
Excerpt: as §1, §2

[6] = test system: HCT116 p53^+/+; test: Cytotoxicity MTS assay, 72 h; type: cell-based, human; settings: Homo sapiens, HCT-116; HCT116 p53^+/+; 72 h; MTS
Excerpt: as §1, §2

[7] = test system: cancer cell lines; test: Cytotoxicity MTS assay, whole panel of cancer cell lines; type: cell-based; settings: Homo sapiens, Hs 683; all the cancer lines, Hs683 an exception
Excerpt: as §1
The cells were seeded in 96-well plates (Nunc) at a density of 5,000 cells/well (HCT116, MCF-7, U-251, Hs683) and 4,000 cells/well (NHDF) and incubated at 37°C for 24 h. […] The optical densities of the samples were analyzed at 490 nm using a multi-plate reader (Synergy 4, Bio Tek). Results were expressed as a percentage of the control and calculated as the inhibitory concentration (IC50) values using GraphPad Prism 5. […]

melting point: 206 to 207 °C
Compound: Nc1cccnc1C=NNC(=S)N1CCN(c2ccc(Cl)cc2)CC1 [L^3, N’-[(3-aminopyridin-2-yl)methylidene]-4-(4-chlorophenyl)piperazine-1-carbothiohydrazide]
IC50 [1]: > 25000 nM
IC50 [2]: 1480 ± 335 nM
IC50 [3]: 204 ± 49 nM
IC50 [4]: 167 ± 18 nM
IC50 [5]: 128 ± 12 nM
IC50 [6]: 120 ± 5 nM
IC50 [7]: 120 to 200 nM
